# In paper PMC7066271 (Clinical and Experimental Nephrology, 2020):
# Tests used:
# [1] = Unbound fraction of dotinurad in plasma at the time of Cmax (ultrafiltered plasma, LC-MS/MS); type: in vivo, human
# Procedure: (§1) Ultrafiltered plasma samples were used to determine unbound plasma concentrations of dotinurad by a validated LC–MS/MS method (LC:LC-20AD system, SHIMADZU. MS/MS: API4000, SCIEX). The LLOQ was 0.1 ng/mL.
# [2] = system: CYPs, UGTs, sulfotransferases, and drug transporters; parameters: method as in earlier work; conditions: at clinical doses, several in vitro studies; cited from earlier work
# [3] = system: ATP-binding cassette subfamily G member 2 (ABCG2); parameters: method as in PMID 31371478, PMID 31754883; conditions: compared to probenecid, benzbromarone, and lesinurad; cited from earlier work
# healthy adult males [4] = assay: Safety evaluation: adverse events in healthy adult males; type: in vivo, human; conditions: for Adverse events reported, all: by treatment period, causal relationship with study drugs ruled out; for Peritonsillar abscess, incidence / Peritonsillar abscess, number of events / Pharyngitis, incidence / Pharyngitis, number of events / Urine beta 2 microglobulin increased, incidence / Urine beta 2 microglobulin increased, number of events: healthy adult males, n = 12 for each drug alone, n = 11 for co-administration
# Procedure: (§2) This was a single-center, open-label, two-period, sequential-group, add-on, drug–drug interaction study in healthy adult males conducted at a Japanese clinical pharmacology study center. Following a screening period ranging from 29 days before, to the day before the study drug administration (Day -1), eligible subjects were admitted to the study site on Day-1, received a single 4 mg oral dose of dotinurad in a fed state, and were discharged 48 h postdose. […] They underwent a follow-up examination between six and ten days after co-administration for safety evaluation.
# Adverse events (AEs), a measure used for safety evaluation, were coded by preferred term using the Medical Dictionary for Regulatory Activities (MedDRA) version 20.1 (Japanese Maintenance Organization, Tokyo, Japan) and tabulated. The investigator observed/examined/assessed AEs, subjective symptoms and objective findings, vital signs, electrocardiography, and laboratory test values.
# The safety analysis population included subjects who received at least one dose of dotinurad and who had data for safety evaluation.
# human plasma protein = system: human plasma protein; parameters: method as in earlier work; conditions: cited from earlier work
# [5] = system: urate transporter 1 (URAT1); parameters: method as in PMID 31371478, PMID 31754883; conditions: cited from earlier work
# [6] = Plasma pharmacokinetics of dotinurad, single 4 mg oral dose with and without oxaprozin, in healthy adult males; type: in vivo, human
# Procedure: This was a single-center, open-label, two-period, sequential-group, add-on, drug-drug interaction study in healthy adult males conducted at a Japanese clinical pharmacology study center. Following a screening period ranging from 29 days before, to the day before the study drug administration (Day -1), eligible subjects were admitted to the study site on Day-1, received a single 4 mg oral dose of dotinurad in a fed state, and were discharged 48 h postdose. […] They underwent a follow-up examination between six and ten days after co-administration for safety evaluation. […] A blood sample was drawn, in the amount of 5 mL at each time point except for 10 mL at 4 h after drug administration, into a heparin-containing blood collection tube and centrifuged at 3000 rpm for 10 min at 4 °C. A plasma sample obtained at each time point was then stored at - 20 °C before shipping in a chilled condition with dry ice to Sekisui Medical Co., Ltd. (Ibaraki, Japan) for determination of plasma drug concentrations. […] Ultrafiltered plasma samples were used to determine unbound plasma concentrations of dotinurad by a validated LC-MS/MS method (LC:LC-20AD system, SHIMADZU. MS/MS: API4000, SCIEX). The LLOQ was 0.1 ng/mL.
# [7] = Urinary excretion (fe) of dotinurad metabolites with and without oxaprozin in healthy adult males; type: in vivo, human
# Procedure: as §2
# After the pH of the urine sample collected after each time interval was adjusted to ≤ 7.0, the sample was stored at – 20 °C before shipping in a chilled condition with dry ice to Fuji Yakuhin Co., Ltd. (Saitama, Japan) for determination of urinary concentrations of dotinurad’s metabolites.
# Urinary concentrations of metabolites (glucuronate conjugates and sulfate conjugates) were determined by a validated LC-MS/MS method (LC: Nexera X2 and Prominence, SHIMADZU. MS/MS: Triple Quad 4500, SCIEX). The LLOQ was 10 ng/mL for both metabolites.
# OAT3 = system: OAT3; parameters: method as in PMID 31371478, PMID 31754883; conditions: compared to probenecid, benzbromarone, and lesinurad; cited from earlier work
# [8] = system: organic anion transporter (OAT) 1; parameters: method as in PMID 31371478, PMID 31754883; conditions: compared to probenecid, benzbromarone, and lesinurad; cited from earlier work
# healthy adult males [9] = assay: Estimated glomerular filtration rate 24 h after dosing; type: in vivo, human
# [10] = Plasma oxaprozin concentrations before and 24 h after co-administration (steady-state check); type: in vivo; conditions: male, human, oral, 24 h after co-administration with dotinurad, n = 11
# Procedure: A blood sample was drawn, in the amount of 5 mL at each time point except for 10 mL at 4 h after drug administration, into a heparin-containing blood collection tube and centrifuged at 3000 rpm for 10 min at 4 °C. A plasma sample obtained at each time point was then stored at – 20 °C before shipping in a chilled condition with dry ice to Sekisui Medical Co., Ltd. (Ibaraki, Japan) for determination of plasma drug concentrations.
# as §1
# [11] = [dotinurad and oxaprozin]/[dotinurad alone], n = 11
# [12] = dotinurad 4 mg co-administered with oxaprozin 600 mg, fed, n = 11
# [13] = dotinurad alone, single 4 mg oral dose, fed, n = 12
# [14] = male, human, plasma, dotinurad alone, single 4 mg oral dose, fed, n = 12
smiles,measurement,setting,value
"O=C(c1cc(Cl)c(O)c(Cl)c1)N1CS(=O)(=O)c2ccccc21 [Dotinurad, dotinurad]","Unbound fraction in plasma at Cmax, geometric mean ratio (90% CI)",[1]; [11],1.615 (1.454–1.794)
same,fraction unbound,"[1]; male, human, plasma, oral, dotinurad alone, 4 mg, n = 12",0.00534
same,"Effect on CYPs, UGTs, sulfotransferases, and drug transporters",[2],no effects
same,Effect on ABCG2,[3],minimal effect
same,"Adverse events reported, all",healthy adult males [4],Two events occurred in two subjects
same,"Peritonsillar abscess, incidence",healthy adult males [4],0.0%
same,"Peritonsillar abscess, number of events",healthy adult males [4],0
same,"Pharyngitis, incidence",healthy adult males [4],8.3%
same,"Pharyngitis, number of events",healthy adult males [4],1
same,"Urine beta 2 microglobulin increased, incidence",healthy adult males [4],8.3%
same,"Urine beta 2 microglobulin increased, number of events",healthy adult males [4],1
same,Effect on plasma protein binding rates of potentially co-administered drugs,"human plasma protein; at clinical doses, in vitro",no effects
same,URAT1 inhibition,[5],potent URAT1 inhibitor
same,"AUC0–inf, geometric mean ratio (90% CI)",[6]; [11],1.165 (1.114–1.219)
same,"CLtot/F, geometric mean ratio (90% CI)",[6]; [11],0.858 (0.820–0.898)
same,"Cmax, geometric mean ratio (90% CI)",[6]; [11],0.982 (0.945–1.021)
same,"T1/2, geometric mean ratio (90% CI)",[6]; [11],1.205 (1.176–1.236)
same,"Tmax, geometric mean ratio (90% CI)",[6]; [11],1.000 (0.844–1.185)
same,"Vd/F, geometric mean ratio (90% CI)",[6]; [11],1.035 (0.999–1.071)
same,Increase in AUC0–inf of dotinurad,[6]; co-administration with oxaprozin compared with dotinurad alone,16.5%
same,"AUC0–inf, mean",[6]; [12],4487 ng・h/mL
same,"CLtot/F, mean",[6]; [12],0.901 L/h
same,"AUC0–inf, mean",[6]; [13],3846 ng・h/mL
same,"CLtot/F, mean",[6]; [13],1.065 L/h
same,Cmax,[6]; [14],0.271 µg/mL
same,Tmax,[6]; [14],3.67 h
same,Vd/F,[6]; [14],14.9 L
same,half-life,"[6]; male, human, plasma, dotinurad alone, single 4 mg oral dose, fed, n = 12, read-out: T1/2, mean (converted)",9.85 h
same,Estimated increase in dotinurad exposure when co-administered with oxaprozin,[7]; assuming absence of compensatory enhancement of other metabolic pathways,approximately 13%
same,Proportion of glucuronidation inhibited by co-administered oxaprozin in terms of the entire metabolism of dotinurad,[7]; calculated from fe of glucuronate conjugates,13.2%
same,Effect on OAT3,OAT3,minimal effect
same,Effect on OAT1,[8],minimal effect
same,Estimated glomerular filtration rate (eGFR) (mean ± SD),"healthy adult males [9]; 24 h after administration of dotinurad alone, n = 12",100.9 ± 13.0 mL/min/1.73 m^2
same,Estimated glomerular filtration rate (eGFR) (mean ± SD),"healthy adult males [9]; 24 h after co-administration with oxaprozin, n = 11",93.3 ± 13.0 mL/min/1.73 m^2
"O=C(O)CCc1nc(-c2ccccc2)c(-c2ccccc2)o1 [Oxaprozin, oxaprozin, reference compound]","Adverse events reported, all",healthy adult males [4],one event occurred in one subject
same,"Peritonsillar abscess, incidence",healthy adult males [4],8.3%
same,"Peritonsillar abscess, number of events",healthy adult males [4],1
same,"Pharyngitis, incidence",healthy adult males [4],0.0%
same,"Pharyngitis, number of events",healthy adult males [4],0
same,"Urine beta 2 microglobulin increased, incidence",healthy adult males [4],0.0%
same,"Urine beta 2 microglobulin increased, number of events",healthy adult males [4],0
same,Effect on plasma protein binding rate of dotinurad,"human plasma protein; human plasma, ultrafiltration method",lower the plasma protein binding rate of dotinurad
same,concentration at 24 h,[10],102 ± 10.4 µg/mL
